Measurements published in PubChem BioAssay (NCI).
“And” between values parts separate entries of the source, which are not always exact repeats. Equal entries are not always repeated.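 Growth conditions: 96-well plates. Treatment: test compound, 48 hours, 5 concentrations. Analysis: linear interpolation between bracketing concentrations; unreached endpoints set to highest concentration. GI50 = concentration required for 50% inhibition of growth. TGI is the concentration that stops growth completely.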

How the values were obtained:
Experiment in all cases: NCI tumour cell line growth inhibition, 48 h
[1] = tested on: A549 NSCLC
[2] = tested on: HOP-92 NSCLC
[3] = tested on: LOX IMVI melanoma
[4] = tested on: MALME-3M melanoma
[5] = tested on: MDA-MB-231 breast
[6] = tested on: NCI-H522 lung
[7] = tested on: OVCAR-3 ovarian
[8] = tested on: PC-3 prostate

SMILES | TGI [1] [µM] | TGI [2] [µM] | TGI [3] [µM] | TGI [4] [µM] | TGI [5] | TGI [6] [µM] | TGI [7] [µM] | TGI [8] [µM] | GI50 [4] [µM] | GI50 [5] [µM] | GI50 [7] [µM]
CC(=N\N=C\c1ccccn1)/C(C)=N/N=C(C)/C(C)=N/N=C(C)/C(C)=N/N=C/c1ccccn1 | > 100 | > 100 | > 100 | > 100 | > 100 µM | > 100 | > 100 | > 100 |  |  | 
CS(=O)(=O)O.[Ag] | 33.8 |  | 73.9 | 3.79 | 41 µM | 4.52 | 88.5 | 27.2 |  |  | 
O=C(O)C1SCCS1 | > 100 | > 100 | > 100 | > 100 | > 100 µM |  | > 100 | > 100 |  |  | 
CC1(C)[C@@H]2C[C@H]1C(Cc1cccc(C[C@H]3c4cc(-c5ccccn5)ncc4[C@H]4C[C@@H]3C4(C)C)c1)c1cc(-c3ccccn3)ncc12 (some centres undefined) | > 100 |  | 4.15 | 44.9 | > 100 µM | > 56.7 | 37.2 | > 47.2 | 3.65 |  | 
O=C(O)/C=C/C(=O)O | > 100 | > 100 | > 100 | > 100 | > 100 µM | > 100 | > 100 | > 100 |  |  | 
O=C(OCc1ccccc1)N1c2cc([N+](=O)[O-])ccc2C(=O)N2CCC[C@H]2C1O (some centres undefined) | > 100 | > 100 | > 100 |  | > 100 µM | > 100 | > 100 | > 100 |  |  | 
CC(C)C(C/C=C1\CC(CO)(COC(=O)CC(C(C)C)C(C)C)OC1=O)C(C)C (centres undefined) | 18.8 | 16.6 | 27.3 | 14.5 | 27.2 µM | 27.6 | 30.6 | 24.6 |  |  | 
CC[C@@H]1CC[C@@H]2[C@H](CC[C@]3(C)[C@@H](OS(=O)(=O)c4ccc(C)cc4)CC[C@@H]23)[C@H]1CO | > 100 | > 100 | > 100 | > 100 | > 100 µM | > 100 | > 100 | > 100 |  |  | 
O=C1C(N=Nc2ccc(-c3nc4ccccc4[nH]3)cc2)NC(=S)N1c1ccccc1 (centres undefined) | > 100 | > 100 | 39.4 | > 100 | > 100 µM | > 100 | > 100 | > 100 |  |  | 
CCS(=O)(=O)c1c2cc(OC)ccc2nc2ccc(OC)cc12 | > 100 | > 100 | > 100 | > 100 | > 100 µM | > 100 | > 100 | > 100 |  |  | 
CCOC(=O)C(C)c1nc2cc(N3CCN(C)CC3)c(F)cc2[nH]c1=O (centres undefined) | > 100 | > 100 |  | > 100 | > 100 µM | > 100 | > 100 | > 100 |  |  | 
C/C=C\C(CC(=O)NCCC1CN(C(=O)c2ccccc2)c2ccccc21)CC(=O)OC (centres undefined) | > 100 | > 100 |  | > 100 | > 100 µM | > 100 | > 100 | > 100 |  |  | 
O=C1O[C@]2(c3ccccc3)C(c3ccccc3)=C[C@]2(C(=O)c2ccccc2)C1=O | > 100 | 64.8 | 79 | > 100 | 99.1 µM | 48.5 | > 100 | > 100 |  |  | 
COc1ccc(/C=C2\CN(C)Cc3c2[nH]c(=O)c(C#N)c3-c2ccc(OC)cc2)cc1 | > 100 | > 100 | > 100 | > 100 | > 100 µM | > 100 | > 100 | > 100 |  |  | 
NCCCCNC1(c2cc3ccccc3s2)CCCCC1 | 20.5 | 20.8 | 4.03 | 4.01 | 11.4 µM | 6.19 | 9.28 | 17.3 |  |  | 
O=C(/C=C/c1ccccc1O)/C=C/c1ccccc1O | 6.38 | 4.87 |  | 4.27 | 5.29 µM |  | 1.26 | 3.38 |  |  | 
COc1ccc2c(c1)-c1oc3ccccc3c(=O)c1CO2 | > 100 |  | 44.5 | > 100 | 90.8 µM | > 100 | > 100 | > 100 |  |  | 
CN(C)CC(NC(NCS)C(=O)NCCNc1ccc(NCCNC(=O)C(NCS)NC(CN(C)C)OCCl)c2c1C(=O)c1c(O)ccc(O)c1C2=O)OCCl (centres undefined) | 1.54 |  | 1.85 |  | 0.305 µM and 2.68 µM |  |  | 1.46 |  | 1.05 | 1.36
CCOC(=O)N(C)C1(c2ccccc2)CCN(CCCC(=O)c2ccc(F)cc2)CC1 | > 100 | 78.6 | 42.3 | 30 | > 100 µM | > 100 | > 100 | > 100 |  |  | 
O=c1[nH]c2ccccc2c2oc(-c3ccccc3)nc12 | > 100 | 56.7 | 50.6 | > 100 | 38.1 µM | > 100 | > 100 | > 100 |  |  | 
CC(=O)NC1=C(C)C(=O)c2c(nc3n2CC[C@H]3OC(C)=O)C1=O | 24.8 | 1.83 | 2.11 | 3.14 | 2.71 µM | 3.73 | 1.4 | 1.99 |  |  | 
OCCO[P+]1(OCCO)n2c3ccc2C(c2ccccc2)=C2C=CC(=N2)C(c2ccccc2)=c2ccc(n21)=C(c1ccccc1)C1=NC(=C3c2ccccc2)C=C1 | 1.93 | 0.399 |  |  | 0.275 µM | 0.2 | 1.34 | 1.59 |  |  | 
CC(C)(NC1=NCCO1)c1ccccc1 | > 100 | > 100 | > 100 | > 100 | > 100 µM | > 100 | > 100 | > 100 |  |  | 
Cc1cc([N+](=O)[O-])ccc1N=NC(=O)NNc1ccc([N+](=O)[O-])cc1C | 31.5 |  | 29.8 | 37 |  | 51.7 | 34.4 | 26.6 |  |  | 
NC(=O)NCCCC(NC(=O)OCCCCCn1ccc(=O)[nH]c1=O)C(=O)O (centres undefined) | > 100 | > 100 | > 100 |  | > 100 µM |  | > 100 | > 100 |  |  | 
COC(=O)CCN(CCC(=O)OC)C1CC1 | > 100 | > 100 | > 100 | > 100 | > 100 µM |  |  |  |  |  | 

SMILES | TGI [1] [µM] | TGI [2] [µM] | TGI [3] [µM] | TGI [4] [µM] | TGI [5] | TGI [6] [µM] | TGI [7] [µM] | TGI [8] [µM] | GI50 [4] [µM] | GI50 [5] [µM] | GI50 [7] [µM]
CN(C)CCn1c(=O)c2ccc3c4c(nn3CCN(C)C)c3ccccc3n(c1=O)c24 | 4.38 |  | 1.38 | 2.13 | 1.96 µM | 0.329 | 2.63 | 3.21 |  |  | 
O=C1/C(=C/c2ccco2)NC(=S)N1CN1CCOCC1 | > 100 | > 100 | > 100 |  | > 100 µM |  | > 100 | > 100 |  |  | 
Cc1nnc2sc(N/N=C/c3ccccc3)nn12 | > 100 |  | > 100 | > 100 | > 100 µM | > 100 | > 100 | > 100 |  |  | 
COc1ccc2c(c1)CC[C@@H]1[C@@H]2CC[C@]2(C)C(=O)/C(=C/c3cc(OC)c(OC)c(OC)c3)C[C@@H]12 | > 100 | 45.4 |  | 35 | 42 µM |  | 33.7 | 26.9 |  |  | 
CC(C)(C)OC(=O)NCC(=O)N1CCCN(C(=O)CNC(=O)OC(C)(C)C)CC1 | > 100 | > 100 | > 100 | > 100 | > 100 µM | > 100 | > 100 | > 100 |  |  | 
CCC(C)C1(O)OC2CC3(C)OC(=CC3=O)/C(C)=C\C3OC(=O)C1(C)C32 (centres undefined) | > 100 | 31.3 | 49.4 |  | 41.2 µM | 14.3 | 42.6 | > 100 |  |  | 
O=C(O)c1ccc(Nc2nc3ccccc3nc2C(=O)O)cc1 | > 100 | > 100 |  | > 100 | > 100 µM | > 100 | > 100 |  |  |  | 
N#Cc1c(N2CCN(c3ccc([N+](=O)[O-])cc3)CC2)[n+](=O)c2ccc(Cl)cc2n1[O-] | > 24.4 |  | 1.15 | 6.31 |  | 2.36 |  | > 36.2 |  |  | 
CC(=O)OCC1OC(c2nnc(C)o2)=CC(OC(C)=O)C1OC(C)=O (centres undefined) | > 100 |  | > 100 | > 100 | > 100 µM | > 100 | > 100 | > 100 |  |  | 
Nc1c(S(=O)(=O)O)cc(Nc2cccc(S(=O)(=O)/C=C/S(=O)(=O)O)c2)c2c1C(=O)c1ccccc1C2=O | > 100 | > 100 | > 100 | > 100 | > 100 µM | > 100 | > 100 | > 100 |  |  | 
CN(C)CCOC1(CC2CCCCC2)CCC(C(C)(C)C)CC1 (centres undefined) | 17.6 | 17.5 | 6.79 | 6.65 | 13.5 µM | 8.49 | 18.4 | 13.2 |  |  | 
Nc1nc2cc(CNc3ccc(C(=O)NC(CCC(=O)O)C(=O)O)cc3)ccc2nc1-c1ccccc1 (centres undefined) | > 10 |  | > 10 | > 10 | > 10 µM | > 10 | > 10 | > 10 |  |  | 
Cc1c(F)c(N)c2c(=O)cc(-c3ccc(NC(=O)C(N)CCCN=C(N)N)c(F)c3)oc2c1F (centres undefined) | > 100 | > 100 | > 100 | 62.5 | > 59.6 µM | 97.7 |  | > 76.6 |  |  | 
CCCCCCOc1ccc(NC2=C(Cl)C(=O)c3ncccc3C2=O)cc1 | 8.96 | > 10 | 4.15 | 3.77 |  |  | 6.25 | 3.97 |  |  | 
COc1cc(C2S/C(=C/c3ccccc3)C(=O)N2c2cccc([N+](=O)[O-])c2)cc(OC)c1OC (centres undefined) | > 100 | > 100 | > 100 | > 100 | > 100 µM | > 100 |  | > 100 |  |  | 
Cc1n(CC(=O)c2ccccc2)nc2sc(N)n[n+]12 | > 100 |  | > 100 | > 100 |  | > 100 | > 100 | > 100 |  |  | 
CN(c1ccccc1Cl)S(=O)(=O)c1ccccc1[N+](=O)[O-] | > 100 |  | > 100 | > 100 | > 100 µM | > 100 | > 100 | > 100 |  |  | 
Cn1ccc(C(=O)NCCCCCNC(=O)c2ccn(C)c(=O)c2O)c(O)c1=O | > 100 | > 100 | > 100 | > 100 | > 100 µM | > 100 |  | > 100 |  |  | 
O=C(c1ccccc1)N1C(=S)N(c2ccc([N+](=O)[O-])cc2)C(=Nc2ccccc2)C1=Nc1ccccc1 | > 100 | > 100 |  | > 100 | > 100 µM | > 100 | > 100 | > 100 |  |  | 
Cc1ccc2nc(Cl)c(/C=N/N3C(=O)/C(=C/c4ccc(N(C)C)cc4)N=C3c3ccccc3)cc2c1 | > 100 | > 100 | > 100 |  | > 100 µM |  | 44.9 | > 100 |  |  | 
COc1cc2c(cc1Cl)n([O-])c(C#N)c(N1CCN(c3ccc([N+](=O)[O-])cc3)CC1)[n+]2=O | > 100 |  | 73.6 | 99.6 | > 100 µM | 41.6 | > 100 | > 100 |  |  | 
COc1cc(CNc2nc3cc(C(F)(F)F)ccc3nc2C)cc(OC)c1OC | > 100 |  | 27.8 | 41.8 | 29.3 µM | 48.5 | > 100 |  |  |  | 
COc1cc(-c2nc3nc(N4CCN(C)CC4)ccc3[nH]2)c(OC)c2[nH]c(COC(C)=O)nc12 | > 100 | > 100 | 73.6 | 67.9 | 63.6 µM | > 100 |  |  |  |  | 
C[C@H](CCC1=NCCN1)[C@H]1CC[C@H]2[C@@H]3CC[C@@H]4C[C@H](O)CC[C@]4(C)[C@H]3C[C@H](O)[C@]12C |  | 30.9 | 29.3 | 27.9 | 34 µM | 19.3 | 24.5 | 20.7 |  |  | 
Cc1cccc2c1C/C(=C\c1cccc(C)c1C(=O)O)C2=O | > 100 | > 100 | > 100 | > 100 |  | > 100 | > 100 | > 100 |  |  | 
C#CCOC(=O)C(N)CCCN=C(N)N (centres undefined) | > 100 | > 100 | > 100 | > 100 | > 100 µM | > 100 |  | > 100 |  |  | 
